Assay results taken from US4461899A, “Fluorenecarboxylic acid derivatives” (Diamond Shamrock Chemicals Company, priority 1982, dated 1984).
“Also recorded” adds a separate entry of the source. Counter-ions that a name gives are not always drawn.

Columns and labels:
Assay type in all cases: in vivo
soybean plants = test: Soybean yield after foliar spray at early flowering stage; conditions: for Yield Improvement %: vs control
Excerpt: Two 50 cm rows of soybean plants at the early flowering stage were sprayed with 100 ppm or 500 ppm of the cis-2,5-dimethylpyrrolidine salt of 9-fluorenecarboxylic acid, using a spray volume of about 375 liters/hectare (40 gallons/acre). For comparison, other rows were sprayed with like concentrations of two known compounds as designated below. Also 2 untreated rows were maintained to serve as a control: each of the plots was weeded by hand as needed. At maturity, each plot was harvested and the yield was determined.

[1] = system: field grown tomato plants; test: Overall yield and fruit size of field grown tomatoes; conditions: for Fruit Size, Green (% of Control): control 104.0 g; for Fruit Size, Red (% of Control): control 105.5 g
Excerpt: This example illustrates the effects of compounds of this invention on overall yield of tomatoes. For the test, field grown tomato plants, when in the early flowering stage, were foliage sprayed with the particular compounds of the invention designated below, and with the commercial product CF-125 (Maintain), at rates of 10, 50 and 500 ppm. These rates correspond to applications of 3.69 g, 18.54 g and 185.4 g/hectare, respectively. Each treatment consisted of five plants; the experimental design was a complete randomized block with three replications. A block of untreated plants was included as the control. The fruit was harvested by hand and separated into […] ripe fruit and marketable green fruit.

[2] = system: field grown tomato plants; test: Fruit set and phytotoxicity in field grown tomato plants; conditions: for Increase Over Control (%) of fruit set: 24 days; for Fruit Set Per Plant (After 24 days) / Phytotoxicity: 24 days after treatment; for Increase (%) of fruit set: initial to 24 days
Excerpt: To determine fruit set effects by compounds of this invention, field grown tomato plants were foliage sprayed with the cis-2,5-dimethylpyrrolidine salt of […], 9-cis-2,5-dimethyl-1-pyrrolidinyl-2-chlorofluorene-9-carboxylic acid, methyl ester, and the commercial plant growth regulant, MAINTAIN CF-125 (methyl-2-chloro-9hydroxyfluorene-9-carboxylate, manufactured by U.S. Borax and Chemical Corp.). Rates of application employed were 5, 25, and 100 ppm when the tomato plants were in the late blooming to early fruit setting stage. Untreated plants were included in the test as controls. Five plants were sprayed for each chemical treatment. The number of fruit set and the degree of phytotoxicity to the plants were determined 24 days after treatment.

[3] = system: Kentucky and Merion turfgrass mixture; test: Turfgrass growth retardation (height and fresh weight of clippings) after spraying; conditions: for % Reduction in Weight / Reduction in Height: vs control
Procedure: Two known plant growth regulants were similarly tested. Some grass samples were not treated, only fertilized, as controls. Before treatment, the grass was cut and then fertilized with a 20-20-20 water-soluble fertilizer. Three pots were sprayed per treatment. […] The pots were placed in a plant growth room and were watered daily. The grass was cut at 21, 49 and 84 days after being treated; the blade height and total fresh weight of the clippings were measured.

[4] = 1.12 kilogram/hectare, after 21 days
[5] = 1.12 kilogram/hectare, after 49 days
[6] = 1.12 kilogram/hectare, after 84 days
[7] = 2.24 kilogram/hectare, after 21 days
[8] = 2.24 kilogram/hectare, after 49 days
[9] = 2.24 kilogram/hectare, after 84 days
[10] = 4.48 kilogram/hectare, after 49 days
[11] = 4.48 kilogram/hectare, after 84 days

SMILES: O=C(O)c1cccc2c1Cc1ccccc1-2 [Example 1, cis-2,5-dimethyl-1-pyrrolidine salt of 1-fluorenecarboxylic acid]
- Yield (Kilograms) × 10^2 (soybean plants; 100 ppm): 19.38 Kilograms × 10^2
- Yield Improvement % (soybean plants; 100 ppm): 9.8%
- Yield (Kilograms) × 10^2 (soybean plants; 500 ppm): 21.98 Kilograms × 10^2
- Yield Improvement % (soybean plants; 500 ppm): 24.1%
- tomato yield / fruit size, in words ([1]; 10, 50 and 500 ppm, Example 1 decrease at 500 ppm): enhanced, at the rates applied, either the total yield of tomatoes and/or the percentage of red fruit vs. green fruit; also recorded: caused a decrease in all yields when applied at a rate of 500 ppm
- Fruit Yield, Green (% of Control) ([1]; 10 ppm): 92 % of Control
- Fruit Yield, Red (% of Control) ([1]; 10 ppm): 152 % of Control
- Total Yield (% of Control) ([1]; 10 ppm): 113 % of Control
- Fruit Size, Green (% of Control) ([1]; 10 ppm): 76 % of Control
- Fruit Size, Red (% of Control) ([1]; 10 ppm): 87 % of Control
- Fruit Yield, Green (% of Control) ([1]; 50 ppm): 45 % of Control
- Fruit Yield, Red (% of Control) ([1]; 50 ppm): 149 % of Control
- Total Yield (% of Control) ([1]; 50 ppm): 80 % of Control
- Fruit Size, Green (% of Control) ([1]; 50 ppm): 93 % of Control
- Fruit Size, Red (% of Control) ([1]; 50 ppm): 73 % of Control
- Fruit Yield, Green (% of Control) ([1]; 500 ppm): 54 % of Control
- Fruit Yield, Red (% of Control) ([1]; 500 ppm): 68 % of Control
- Total Yield (% of Control) ([1]; 500 ppm): 59 % of Control
- Fruit Size, Green (% of Control) ([1]; 500 ppm): 87 % of Control
- Fruit Size, Red (% of Control) ([1]; 500 ppm): 79 % of Control
- Increase Over Control (%) of fruit set ([2]; 5 ppm): 35%
- Fruit Set Per Plant (After 24 days) ([2]; 5 ppm): 16.2
- Phytotoxicity ([2]; 5 ppm): 0
- Fruit Set Per Plant (Initial) ([2]; 5 ppm): 7.6
- Increase (%) of fruit set ([2]; 5 ppm): 108%
- Increase Over Control (%) of fruit set ([2]; 25 ppm): 18%
- Fruit Set Per Plant (After 24 days) ([2]; 25 ppm): 21.0
- Phytotoxicity ([2]; 25 ppm): 0
- Fruit Set Per Plant (Initial) ([2]; 25 ppm): 11.0
- Increase (%) of fruit set ([2]; 25 ppm): 91%
- Increase Over Control (%) of fruit set ([2]; 100 ppm): 47%
- Fruit Set Per Plant (After 24 days) ([2]; 100 ppm): 23.8
- Phytotoxicity ([2]; 100 ppm): light
- Fruit Set Per Plant (Initial) ([2]; 100 ppm): 10.8
- Increase (%) of fruit set ([2]; 100 ppm): 120%
- % Reduction in Weight [3, 4]: 76%
- Reduction in Height [3, 4]: 50%
- % Reduction in Weight [3, 5]: 45%
- Reduction in Height [3, 5]: 45%
- % Reduction in Weight [3, 6]: 0%
- Reduction in Height [3, 6]: 0%
- % Reduction in Weight [3, 7]: 73%
- Reduction in Height [3, 7]: 48%
- % Reduction in Weight [3, 8]: 64%
- Reduction in Height [3, 8]: 46%
- % Reduction in Weight [3, 9]: 0%
- Reduction in Height [3, 9]: 0%
- Reduction in Height ([3]; 4.48 kilogram/hectare, after 21 days): 56%
- % Reduction in Weight [3, 10]: 63%
- Reduction in Height [3, 10]: 46%
- % Reduction in Weight [3, 11]: 19%
- Reduction in Height [3, 11]: 31%
- appearance of treated turf (leaf, texture) ([3]; in words): fine leaf and smooth texture; it did not have the twisted, yellowish leaves
- activity in controlling grass growth ([3]; in words, compared with MAINTAIN CF-125 and MOW-LESS): more active in controlling grass growth than either MAINTAIN CF-125 or MOW-LESS
- % Reduction in Weight ([3]; third dosage column, printed 1.12 kilogram/hectare, after 21 days): 75%
